How the values were obtained:
HaCaT cells = experiment: Hyaluronic acid (HA) production, ELISA of culture supernatant; format: cell-based, human; conditions: 24 hours, untreated group = 100
Description: The HaCaT human keratinocyte cell line was obtained from Cell Line Service GmbH (Germany). The cells were cultured in DMEM containing 1% penicillin-streptomycin and 10% fetal bovine serum (FBS) at 37°C in a 5% CO2 incubator, and subculture was performed every 2 to 3 days.
HaCaT cells were seeded at 1.0 × 10^5 cells/well in a 24-well plate and incubated for 24 hours at 37°C in a 5% CO2 incubator. After incubation, the culture medium was replaced with serum-free DMEM, and the peptide prepared in the above Example was applied at concentrations of 50-200 µM, followed by incubation for 24 hours. The supernatant from each experimental group was collected, and the amount of hyaluronic acid (HA) released into the medium was measured. The positive control group was treated with N-acetylglucosamine at a concentration of 10 mM. Measurement of hyaluronic acid production was conducted using a Hyaluronic Acid ELISA Kit (Cusabio Biotechnology Co., Ltd.) following the manufacturer's protocol.

NHDF cells = experiment: Procollagen Type I Peptide (PIP) production, EIA of culture supernatant; format: cell-based, Human; conditions: 24 hours, untreated group = 100
Description: Normal Human Dermal Fibroblasts (NHDF) were obtained from Lonza (Lonza Walkersville, Inc.) and cultured in FBM (Fibroblast Basal Medium) supplemented with 0.1% hFGF-B, insulin, GA-1000, and 2% FBS at 37°C in a 5% CO2 incubator. Subculture was performed every 2 to 3 days.
NHDF cells were seeded at 2.0 × 10^4 cells/well in a 24-well plate and incubated for 24 hours at 37°C in a 5% CO2 incubator. After incubation, the culture medium was replaced with serum-free FBM, and the peptide prepared in the above Example was applied at concentrations of 1-100 µM, followed by incubation for 24 hours. The supernatant from each experimental group was collected, and the amount of procollagen released into the medium was measured. The positive control group was treated with ascorbic acid at a concentration of 0.001 v/v%. Measurement of procollagen levels was performed using a Procollagen Type I Peptide (PIP) EIA Kit (Takara Biomedical Co.) according to the manufacturer's protocol. The quantitative results of procollagen type I peptide production following treatment with the peptide of the Example are shown in Table 2 and Fig. 3.

B16F10 cells = experiment: Melanin synthesis inhibition in α-MSH-stimulated melanocytes; format: cell-based, Mouse; conditions: 72 hours, α-MSH alone = 100
Description: Mouse-derived melanocytes (B16F10 cells) were obtained from the American Type Culture Collection (ATCC) and used. The cells were cultured in Dulbecco's Modified Eagle's Medium (DMEM) supplemented with 1% penicillin-streptomycin and 10% fetal bovine serum (FBS) at 37 °C in a 5% CO2 incubator, and subcultured every 3 to 4 days.
B16F10 cells were seeded at 6.0 × 10^4 cells/well in a 6-well plate and cultured for 24 hours at 37 °C in a 5% CO2 incubator. The culture medium was then replaced with phenol red-free, serum-free DMEM, followed by treatment with α-MSH, a melanin production-inducing hormone, and the peptide from the above Preparation Example at concentrations ranging from 1 to 100 µM. The cells were incubated for 72 hours, after which they were collected and lysed with 1 N NaOH in an 80 °C heating block to dissolve intracellular melanin. The absorbance of the resulting solution was measured at 490 nm. The control group was treated with arbutin at a concentration of 500 µg/mL.

**Q.** Which “Hyaluronic acid production (%)” value (HaCaT cells; 50 µM) does the source give for “Ala-Ala-Gln-Pro-Arg (AAQPR; printed: Ala-Ala-Gln-Pro-Arg)” here?
**A.** The value was 107.14±1.08%.

**Q.** And the “Hyaluronic acid production (%)” value (HaCaT cells; 100 µM)?
**A.** The value was 130.93±0.59%.

**Q.** And the “Hyaluronic acid production (%)” value (HaCaT cells; 200 µM)?
**A.** Its value is 136.91±6.87%.

**Q.** What about the “Procollagen production (%)” value (NHDF cells; 1 µM) of the same compound?
**A.** Its value is 105.45±3.15%.

**Q.** What about the “Procollagen production (%)” value (NHDF cells; 10 µM) of the same compound?
**A.** The value was 129.75±9.74%.

**Q.** What about the “Procollagen production (%)” value (NHDF cells; 50 µM) of the same compound?
**A.** The value was 132.64±13.74%.

**Q.** What about the “Procollagen production (%)” value (NHDF cells; 100 µM) of the same compound?
**A.** Its value is 134.92±1.3%.

**Q.** What about the “Melanin production (%)” value (B16F10 cells; 1 µM with α-MSH (200 nM)) of the same compound?
**A.** The value was 100.86±4.32%.

**Q.** And the “Melanin production (%)” value (B16F10 cells; 10 µM with α-MSH (200 nM))?
**A.** The value was 89.62±2.95%.

**Q.** And the “Melanin production (%)” value (B16F10 cells; 100 µM with α-MSH (200 nM))?
**A.** The value was 79.76±4.18%.

**Q.** `CC(=O)N[C@H]1C(O)O[C@H](CO)[C@@H](O)[C@@H]1O` (stereo partly shown) [NAG, N-acetylglucosamine] was tested. Which “Hyaluronic acid production (%)” value (HaCaT cells; 10 mM (positive control)) did it give?
**A.** Its value is 125.52±1.18%.

**Q.** How did the “Procollagen production (%)” value (NHDF cells; 10 µg/mL (positive control)) turn out when `O=C1O[C@H]([C@@H](O)CO)C(O)=C1O` [Asc.A, ascorbic acid] was run?
**A.** Its value is 159.45±3.8%.

**Q.** `OC[C@H]1O[C@@H](Oc2ccc(O)cc2)[C@H](O)[C@@H](O)[C@@H]1O` [Arbutin, arbutin] was tested. Which “Melanin production (%)” value (B16F10 cells; 500 µg/mL (control) with α-MSH (200 nM)) did it give?
**A.** Its value is 59.6±0.8%.

— patent EP4671262A1, “NOVEL PEPTIDE EXHIBITING SKIN CONDITION IMPROVEMENT ACTIVITY AND COSMETIC COMPOSITION CONTAINING SAME” (Daebong LS Co., Ltd., priority 2023, dated 2024)
